Assay results taken from article PMC10037270 (Journal of medicinal chemistry, 2023).

Columns and labels:
[1] = biological target: HA-mouse μOR (Mus musculus, UniProt P42866); assay: GloSensor cAMP inhibition assay at μOR in transfected HEK cells; assay type: cell-based; conditions: HEK293, read-out: cAMP inhibition at μOR Emax % ± SEM
[2] = biological target: T1, μOR (Homo sapiens, UniProt P35372); assay type: binding; conditions: screen at 1 μM, [3H]DAMGO
[3] = biological target: κOR (Homo sapiens, UniProt P41145); assay type: binding
[4] = tested on: C57BL/6 mice; assay: Hot-plate assay; assay type: in vivo
[5] = tested on: C57BL/6 mice; assay: Accelerating rotarod assay; assay type: in vivo
[6] = tested on: C57BL/6 mice; assay: Warm-water tail-flick assay; assay type: in vivo
[7] = biological target: T1, μOR; assay type: cell-based; conditions: at 10 μM, DAMGO as control
[8] = naloxone 10 mg/kg i.p. 15 min before 33 100 mg/kg s.c.

HA-mouse μOR, sequence (P42866 whole entry): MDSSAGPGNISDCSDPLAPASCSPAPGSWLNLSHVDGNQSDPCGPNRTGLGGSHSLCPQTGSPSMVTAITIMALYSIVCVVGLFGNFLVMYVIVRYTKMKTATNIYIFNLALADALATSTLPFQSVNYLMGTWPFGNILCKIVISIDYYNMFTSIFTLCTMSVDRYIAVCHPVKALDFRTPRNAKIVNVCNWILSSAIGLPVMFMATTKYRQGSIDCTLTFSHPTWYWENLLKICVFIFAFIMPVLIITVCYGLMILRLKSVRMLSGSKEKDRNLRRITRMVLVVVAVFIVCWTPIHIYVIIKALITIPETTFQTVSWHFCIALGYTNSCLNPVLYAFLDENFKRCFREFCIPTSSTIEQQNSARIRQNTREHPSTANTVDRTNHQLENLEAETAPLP
T1 sequence (P35372 whole entry): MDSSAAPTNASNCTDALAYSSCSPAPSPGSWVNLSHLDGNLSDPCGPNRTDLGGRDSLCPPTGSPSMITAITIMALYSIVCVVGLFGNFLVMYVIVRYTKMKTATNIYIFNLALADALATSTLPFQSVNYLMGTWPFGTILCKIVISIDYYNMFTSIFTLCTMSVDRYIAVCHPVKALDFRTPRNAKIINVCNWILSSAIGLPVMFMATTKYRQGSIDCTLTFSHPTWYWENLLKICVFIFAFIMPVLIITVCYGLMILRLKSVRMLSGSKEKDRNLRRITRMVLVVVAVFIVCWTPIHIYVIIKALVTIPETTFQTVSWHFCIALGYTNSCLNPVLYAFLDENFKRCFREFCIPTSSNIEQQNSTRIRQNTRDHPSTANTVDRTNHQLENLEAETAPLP
κOR, sequence (P41145 whole entry): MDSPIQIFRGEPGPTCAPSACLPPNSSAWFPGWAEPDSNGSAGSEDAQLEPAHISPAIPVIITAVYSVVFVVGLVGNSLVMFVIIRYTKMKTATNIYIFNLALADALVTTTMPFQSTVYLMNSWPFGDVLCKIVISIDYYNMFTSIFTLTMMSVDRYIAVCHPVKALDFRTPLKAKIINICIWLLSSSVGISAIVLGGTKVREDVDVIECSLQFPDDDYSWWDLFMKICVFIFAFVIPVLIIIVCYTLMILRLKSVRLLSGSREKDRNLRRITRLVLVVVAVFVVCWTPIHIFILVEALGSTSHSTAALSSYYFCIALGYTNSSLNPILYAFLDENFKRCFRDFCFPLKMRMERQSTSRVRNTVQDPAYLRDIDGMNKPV

Compound: C/C=C1\CN2CC[C@@]34c5ccccc5N(Cc5ccccc5)[C@]35OC[C@@]4(C(=O)OC)[C@H]1C[C@H]25 [Compound 32, N-1-Benzyl psuedoakuammigine]
- Emax [1]: 63 ± 4%

Compound: C[C@@H](NC(=O)[C@@H](N)Cc1ccc(O)cc1)C(=O)NCC(=O)N(C)[C@@H](Cc1ccccc1)C(=O)NCCO [DAMGO, (2S)-2-[[2-[[(2R)-2-[[(2S)-2-Amino-3-(4-hydroxyphenyl)propanoyl]amino]propanoyl]amino]acetyl]-methylamino]-N-(2hydroxyethyl)-3-phenylpropanamide, reference compound]
- Emax [1]: 96 ± 4%

Compound: C/C=C1/CN2CC[C@@]34c5cc(O)c(I)cc5N(C)[C@]35OC[C@@]4(C(=O)OC)[C@H]1C[C@H]25 [Compound 20, 11-Iodoakuammine]
- radioligand displacement at μOR [2]: > 50%
- Emax [1]: 32 ± 6%
- radioligand displacement at κOR [3]: > 50%

Compound: C/C=C1/CN2CC[C@@]34c5cc(O)ccc5N(C)[C@]35OC[C@@]4(C(=O)OC)[C@H]1C[C@H]25 [Compound 1, Akuammine, reference compound]
- Emax [1]: 62 ± 6%

Compound: C/C=C1/CN2CC[C@@]34c5cc(O)c(Br)cc5N(C)[C@]35OC[C@@]4(C(=O)OC)[C@H]1C[C@H]25 [Compound 19, 11-Bromoakuammine]
- radioligand displacement at μOR [2]: > 50%
- Emax [1]: 40 ± 5%
- radioligand displacement at κOR [3]: > 50%

Compound: C/C=C1/CN2CC[C@@]34c5ccccc5N(C)[C@]35OC[C@@]4(C(=O)OC)[C@H]1C[C@H]25 [Compound 2, Pseudoakuammigine, reference compound]
- Emax [1]: 82 ± 7%

Compound: C/C=C1\CN2CC[C@@]34c5ccccc5N(CC)[C@]35OC[C@@]4(C(=O)OC)[C@H]1C[C@H]25 [Compound 31, N-1-Ethyl psuedoakuammigine]
- Emax [1]: 59 ± 4%

Compound: C/C=C1\CN2CC[C@@]34c5ccccc5N(CCc5ccccc5)[C@]35OC[C@@]4(C(=O)OC)[C@H]1C[C@H]25 [Compound 33, N-1-Phenethyl psuedoakuammigine]
- antinociceptive effect in hot-plate assay ([4]; mice, 80 and 100 mg/kg s.c.): exhibited antinociceptive effect
- antinociceptive effect after naloxone pretreatment, hot-plate [4, 8]: completely blocked by naloxone
- effect on locomotor activity, latency to fall ([5]; 65 mg/kg and 80 mg/kg s.c., accelerating rotarod 4-40 rpm over 300 s): significantly impaired motor activity
- effect on motor coordination ([5]; high doses (80, 100 mg/kg, s.c.)): impair motor coordination
- ED50 ([6]; Mus musculus, sc, read-out: ED50 tail-flick assay): 77.6 mg/kg
- antinociception versus morphine (10 mg/kg), peak effect and duration ([6]; mice, 100 mg/kg s.c., tail-flick): comparable to that of the morphine
- antinociceptive effect in tail-flick assay ([6]; mice, 80 and 100 mg/kg s.c.): exhibited antinociceptive effect
- antinociceptive effect after naloxone pretreatment, tail-flick [6, 8]: completely blocked by naloxone
- recruitment of βArr2 to the μOR [7]: < 10%
- Emax [1]: 76 ± 5%
